One data set relates to ddY male mice. Nature of the data set: Anti-convulsive activity (pulse from corneal electrode). It is filed as in vivo. Conditions: 60 mg/kg intraperitoneally, 15 minutes before pulse; compared with Phenytoin 40 mg/kg. Here is the method:
The test compound was administered intraperitoneally to ddY male mice (weighing 20 to 25 g, 7 mice per group), and, 15 minutes thereafter, pulse (A.C. 100 V, 200 msec.) was applied to the mice from a corneal electrode, and the duration time of tonic flexor, tonic extensor and clonic convulsion were determined.

A short description of another data set: Acute toxicity. Conditions: mouse, in vivo, 7 days observation. On the procedure:
[…] After observing general conditions of mice for 7 days after administration, 50% lethal dose [LD50 (mg/kg)] was determined.

In data set [1] the test system is Wistar male rats. Nature of the data set: Anti-arrhythmic activity (aconitine-induced arrhythmia). It is filed as in vivo. Conditions: 10 mg/kg, 10 minutes before aconitine; compared with Ajmaline 5 mg/kg. Here is the method: An aqueous solution of aconitine was injected continuously at a rate of 3 μg/kg/minute to Wistar male rats (weighing 220 to 270 g, five rats per group) through a polyethylene cannula inserted into the femoral vein. The test compounds were administered 10 minutes before the administration of aconitine.
The cardiac arrhythmia was determined by electrocardiographic recording of II lead on the limbs and the generation of descending large QRS complex was taken as the ventricular extrasystole and the observation was conducted until ventricular fibrillation was produced.

Data set [2] concerns Wistar male rats. Nature of the data set: Diuretic activity. It is filed as in vivo. The conditions noted are these: oral, urine collected 5 hours, control = 1.0. Here is the method: Wistar male rats (weighing 200 to 250 g, 9 rats per group) fasted 18 hours before the test but freely received drinking water were used. A 0.9% (by weight) physiological saline solution containing the test compound was orally charged through a stomach tube in an amount of 3 ml/100 g of body weight. Immediately thereafter, the rats were placed in a stainless steel cage and the urine was collected during a period of 5 hours after the administration and the urine volume was measured.

The next data set concerns BALB/C type male mice. Nature of the data set: Anti-ulcerous activity (restraint water-immersion stress ulcer). Conditions: for Ulcerous Index: control 54.4 mm; for % Inhibition: inhibition of stress ulcer versus control. It is filed as in vivo. On the procedure:
BALB/C type male mice weighing about 20 g which fasted for 17 hours before the test were placed in a poly(vinyl chloride) cyclindrical restraint cage having an inside diameter of 35 mm and the mice were immersed in water at 15° C. to the level of xiphisternum of mice for a period of 5 hours. Immediately thereafter, stomach was extracted and 1 ml of 0.5% (by weight) formalin solution was injected into the stomach. After fixing for about 10 minutes, the stomach was incised along the greater curvature thereof and the ulcer generated was obserbed by a stereoscopic microcope.

SMILES strings stand for the structures. Counter-ions that a name gives are not always drawn.

What is called LD50 is the dose expected to kill half of the subjects tested. A lower LD50 goes with greater toxicity. As for `CCN(CC)CCN[C@H]1c2ccccc2O[C@H](c2ccc(OC)cc2)[C@@H]1O` (relative stereo) [Compound A, 2,3-cis-3,4-trans-4-(2-diethylaminoethylamino)-4'-methoxyflavan-3-ol dimaleate], the anti-convulsive activity entry in the data set on ddY male mice is recorded as “comparable to that of Phenytoin”. The LD50 at 168 h turned out to be 1000 mg/kg in “Acute toxicity” (iv) and 2000 mg/kg in the data set “Acute toxicity” (po).

`COc1ccc([C@H]2Oc3ccccc3[C@H](N3CCN(C)CC3)[C@H]2O)cc1` (relative stereo) [Compound B, 2,3-cis-3,4-trans-4'-methoxy-4-(4-methylpiperazin-1-yl)flavan-3-ol dimaleate]: in the data set with ddY male mice, the anti-convulsive activity entry is listed as “comparable to that of Phenytoin”. For the same compound, in the data set with Wistar male rats [1], the “activity for prolonging the time required for producing the cardiac arrhythmia” value was “superior to Ajmaline”. For the same compound, the LD50 at 168 h in the data set “Acute toxicity” (iv) came to 1000 mg/kg; in the data set “Acute toxicity” (po) it was 2000 mg/kg.

Regarding `COc1ccc([C@H]2Oc3ccccc3[C@H](NCCCN3CCOCC3)[C@H]2O)cc1` (relative stereo) [Compound C, 2,3-cis-3,4-trans-4'-methoxy-4-(3-morpholinopropylamino)flavan-3-ol dimaleate], the anti-convulsive activity result with ddY male mice is listed as “comparable to that of Phenytoin”. For the same compound, in the data set on Wistar male rats [2] (100 mg/kg), the “Volume Ratio of Urine” value was determined as 2.1. Moreover, the LD50 at 168 h in “Acute toxicity” (iv) was 500 mg/kg; in “Acute toxicity” (po) it was 1500 mg/kg.

Regarding `COc1ccc([C@H]2Oc3ccccc3[C@H](NCCCN(C)C)[C@H]2O)cc1` (relative stereo) [Compound D, 2,3-cis-3,4-trans-4-(3-dimethylaminopropylamino)-4'-methoxyflavan-3-ol], the LD50 at 168 h in the data set “Acute toxicity” (iv) is 1000 mg/kg; in “Acute toxicity” (po) it was 1500 mg/kg.

With `O[C@H]1[C@H](c2ccccc2)Oc2ccccc2[C@@H]1N1CCCCC1` (relative stereo) [Compound E, 2,3-trans-3,4-trans-4-piperidinoflavan-3-ol maleate], in the data set on ddY male mice, the anti-convulsive activity entry is reported as “comparable to that of Phenytoin”. Also, in the data set with Wistar male rats [2] (100 mg/kg), the “Volume Ratio of Urine” value is 2.8. Further, the LD50 at 168 h in “Acute toxicity” (iv) stood at 1000 mg/kg; in the data set “Acute toxicity” (po), 1500 mg/kg.

For the compound `CN1CCN([C@H]2c3ccccc3O[C@@H](c3ccccc3)[C@@H]2O)CC1` (relative stereo) [Compound F, 2,3-trans-3,4-trans-4-(4-methylpiperazin-1-yl)flavan-3-ol dimaleate], in the data set with Wistar male rats [2] (100 mg/kg), the “Volume Ratio of Urine” value is given as 2.2. The LD50 at 168 h in the data set “Acute toxicity” (iv) and in the data set “Acute toxicity” (po) was 300 mg/kg in each case.

A word on the % Inhibition: it is the relative decrease from the control value, in per cent. High values mean strong suppression, low ones little suppression. As to `CC(=O)O[C@H]1[C@H](c2ccccc2)Oc2ccccc2[C@@H]1N1CCN(C)CC1` (relative stereo) [Compound G, 2,3-trans-3,4-trans-3-acetoxy-4-(4-methylpiperazin-1-yl)flavan dimaleate], the “Volume Ratio of Urine” value in the data set on Wistar male rats [2] (50 mg/kg) came out at 3.0. The results for the “Ulcerous Index” value in the data set on BALB/C type male mice (10 mg/kg) and in the data set with BALB/C type male mice (50 mg/kg) were 37.6 mm and 14.3 mm, respectively. Besides, the “% Inhibition” value with BALB/C type male mice (10 mg/kg) was 30.8%; with BALB/C type male mice (50 mg/kg) it was 73.7%. Moreover, the values for the LD50 at 168 h in the data set “Acute toxicity” (iv) and in “Acute toxicity” (po) were 300 mg/kg and 1000 mg/kg, respectively.

In the case of `CN(C)CCN[C@H]1c2ccccc2O[C@@H](c2ccccc2)[C@@H]1O` (relative stereo) [Compound H, 2,3-trans-3,4-trans-4-(2-dimethylaminoethylamino)-flavan-3-ol dimaleate], the “activity for prolonging the time required for producing the cardiac arrhythmia” value in the data set on Wistar male rats [1] is given as “superior to Ajmaline”. The LD50 at 168 h in “Acute toxicity” (iv) and in “Acute toxicity” (po) was 300 mg/kg in each case.

Regarding `CN1[C@@H]2CC[C@H]1C[C@@H](OC(=O)C(CO)c1ccccc1)C2` (some centres unmarked) [Atropine Sulfate, reference compound], in the data set on BALB/C type male mice (10 mg/kg), the “Ulcerous Index” value is given as 30.7 mm and the “% Inhibition” value was found to be 43.8%.

The values are drawn from patent US4334067A, “Flavan compounds and acid addition salts thereof” (Maruko Seiyaku Co., Ltd., priority 1979, dated 1982).
